In patent USRE43038E1, “Compound having antitumor activity and process for producing the same” (Riken, priority 2002, dated 2011):
≈ marks a conversion by molar mass, not a printed value.

Tested on: SH-SY5Y cells of human neuroblastoma
Assay: MTT growth inhibition of SH-SY5Y human neuroblastoma cells
Assay type: cell-based
Details: DMEM with 5% fetal bovine serum, 48 hours culture at 37° C., absorbance at 570 nm, read-out: 50% growth-inhibiting concentration
Protocol: SH-SY5Y cells of human neuroblastoma were cultured in DMEM medium (Dulbecco's modified Eagle medium) (containing 5% fetal bovine serum). Compound 1 of the present invention in a series of dilutions was added thereto and cultured at 37° C. under a 5% carbon dioxide atmosphere for 48 hours, followed by adding a MTT (3-(4,5-dimethyl-thiazol-2-yl)-2,5-diphenyl tetrazoliumbromide) reagent and further culturing for 2 to 4 hours. Absorbance at 570 nm was then measured to calculate the survival ratio.

IC50: 0.4 µg/mL (≈ 0.927 µM)
SMILES: CC=C(/C=C(C)/C=C/CC/C=C(\C)C(=O)C12OC1C(C)(O)NC2=O)C(=O)OC(C)(C)C (stereo not shown) [Compound 1, (3E,5E,9E)-tert-butyl-2-ethylidene-11-(4-hydroxy-4-methyl-2-oxo-6-oxa-3-aza-bicyclo[3.1.0]hex-1-yl)-4,10-dimethyl-11-oxounde ca-3,5,9-trienoate]
